Assay results reported in ChEMBL document CHEMBL1201862, “PubChem BioAssay data set” (2004).
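Five concentrations, 48 hours, 96-well plates. At the GI50, growth is halved.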 Active and inactive are the calls of the source. No stated cut-off is given here; in the data, active = GI50 up to about 1.1 µM and inactive = higher.

Columns and labels:
Experiment in all cases: growth of human tumour cells (NCI), 48 h
NCI/ADR-RES = tested on: NCI/ADR-RES
SN12C = tested on: SN12C
UACC-257 = tested on: UACC-257
UO-31 = tested on: UO-31
SNB-75 = tested on: SNB-75
UACC-62 = tested on: UACC-62
HCT-15 = tested on: HCT-15
SNB-19 = tested on: SNB-19
KM12 = tested on: KM12
MCF7 = tested on: MCF7
IGROV-1 = tested on: IGROV-1
HCT-116 = tested on: HCT-116
HT-29 = tested on: HT-29
SW-620 = tested on: SW-620
OVCAR-8 = tested on: OVCAR-8
SF-295 = tested on: SF-295
MDA-N = tested on: MDA-N
HOP-62 = tested on: HOP-62
M14 = tested on: M14
LOX IMVI = tested on: LOX IMVI

| SMILES | GI50 (NCI/ADR-RES) | GI50 (SN12C) | GI50 (UACC-257) | GI50 (UO-31) | GI50 (SNB-75) | GI50 (UACC-62) | GI50 (HCT-15) [µM] | GI50 (SNB-19) | GI50 (KM12) | GI50 (MCF7) | GI50 (IGROV-1) | GI50 (HCT-116) | GI50 (HT-29) | GI50 (SW-620) | GI50 (OVCAR-8) | GI50 (SF-295) | GI50 (MDA-N) | GI50 (HOP-62) | GI50 (M14) | GI50 (LOX IMVI) |
| --- | --- | --- | --- | --- | --- | --- | --- | --- | --- | --- | --- | --- | --- | --- | --- | --- | --- | --- | --- | --- |
| Cc1ccc(/N=N/C(=N\c2ccc(Cl)cc2)c2ccc(N(CCC#N)CCC#N)cc2)cc1 | 57.8 µM (inactive) | 40.9 µM (inactive) | 12.4 µM (inactive) | 6.89 µM (inactive) | 60.3 µM (inactive) | 11.8 µM (inactive) | 14.2 | > 100 µM (inactive) | 19.1 µM (inactive) | 21.6 µM (inactive) | 30.3 µM (inactive) | 49 µM (inactive) | 71.4 µM (inactive) | 58.9 µM (inactive) | 63.8 µM (inactive) | 3.98 µM (inactive) | 55.6 µM (inactive) | 58.3 µM (inactive) | 30.8 µM (inactive) | – |
| CCOC(=O)c1nc2ccccc2nc1Nc1cc(OC)c(OC)c(OC)c1 | > 100 µM (inactive) | > 100 µM (inactive) | – | > 100 µM (inactive) | 43.6 µM (inactive) | > 100 µM (inactive) | > 100 | > 100 µM (inactive) | > 100 µM (inactive) | > 100 µM (inactive) | > 100 µM (inactive) | > 100 µM (inactive) | > 100 µM (inactive) | – | – | > 100 µM (inactive) | > 100 µM (inactive) | > 100 µM (inactive) | > 100 µM (inactive) | – |
| CC(C)(C)n1c(=O)n(C(=O)C(Cl)(Cl)Cl)n(C(=O)C(Cl)(Cl)Cl)c1=O | > 100 µM (inactive) | > 100 µM (inactive) | > 100 µM (inactive) | > 100 µM (inactive) | – | > 100 µM (inactive) | > 100 | > 100 µM (inactive) | > 100 µM (inactive) | > 100 µM (inactive) | > 100 µM (inactive) | > 100 µM (inactive) | > 100 µM (inactive) | > 100 µM (inactive) | > 100 µM (inactive) | > 100 µM (inactive) | > 100 µM (inactive) | > 100 µM (inactive) | > 100 µM (inactive) | > 100 µM (inactive) |
| O=S(=O)(NC1CCCCC1)c1ccc2c(c1)OCCOCCOCCOCCO2 | – | > 100 µM (inactive) | > 100 µM (inactive) | > 100 µM (inactive) | > 100 µM (inactive) | > 100 µM (inactive) | > 100 | > 100 µM (inactive) | > 100 µM (inactive) | > 100 µM (inactive) | > 100 µM (inactive) | > 100 µM (inactive) | > 100 µM (inactive) | > 100 µM (inactive) | > 100 µM (inactive) | > 100 µM (inactive) | > 100 µM (inactive) | > 100 µM (inactive) | > 100 µM (inactive) | > 100 µM (inactive) |
| CC[C@H]1C=CCC[C@@]2(C[C@@H]3CC[C@@H]4[C@H](C(=O)OCCCCCCCCCCCCCCCC(=O)N(CCCNC(C)=O)C[C@H](CCNC(C)=O)OC(C)=O)[C@]5(CCC[C@@H](C)O5)NC(=[N+]34)N2)O1 | 2.74 µM (inactive) | 0.516 µM (active) | 0.0281 µM (active) | 1.2 µM (inactive) | – | 0.0752 µM (active) | 0.904 | 0.533 µM (active) | 0.0847 µM (active) | 0.0861 µM (active) | 0.0583 µM (active) | 0.0405 µM (active) | 0.0344 µM (active) | 0.264 µM (active) | 0.614 µM (active) | 0.391 µM (active) | 0.0466 µM (active) | 0.494 µM (active) | 0.129 µM (active) | 0.0277 µM (active) |
| Nc1ccc(-c2cssc2=S)cc1 | 41.9 µM (inactive) | 31.1 µM (inactive) | 59.6 µM (inactive) | 35.9 µM (inactive) | – | 26.9 µM (inactive) | 45.5 | > 100 µM (inactive) | 42 µM (inactive) | 52.1 µM (inactive) | 50.7 µM (inactive) | 42 µM (inactive) | 51.9 µM (inactive) | 54.8 µM (inactive) | 45.7 µM (inactive) | 33.3 µM (inactive) | 30.4 µM (inactive) | 42.1 µM (inactive) | 75.7 µM (inactive) | 41.1 µM (inactive) |
